One series is described as follows: Metabolic stability in pooled liver microsomes. The following applies: human liver microsomes, 37° C., test compound 1 μM, microsomal protein 0.5 mg/mL, NADPH 1 mM. Format: in vitro ADME, human. The method, then:
The metabolic degradation of the test compound is assayed at 37° C. with pooled liver microsomes from various species. The final incubation volume of 100 μl per time point contains TRIS buffer pH 7.6 at room temperature (0.1 M), magnesium chloride (5 mM), microsomal protein (0.5 mg/mL) and the test compound at a final concentration of 1 μM. Following a short preincubation period at 37° C., the reactions are initiated by addition of beta-nicotinamide adenine dinucleotide phosphate, reduced form (NADPH, 1 mM), and terminated by transferring an aliquot into solvent after different time points. After centrifugation (10000 g, 5 min), an aliquot of the supernatant is assayed by LC-MS/MS for the amount of parent compound. The half-life is determined by the slope of the semi-logarithmic plot of the concentration-time profile.
A general note: Liver microsomes are vesicles of endoplasmic reticulum, rich in cytochrome P450 enzymes.
As to `O=C(c1ccc2[nH]cnc2c1)N1CCC[C@@H]2c3ccccc3CC[C@@H]21` (relative stereo) [Example 1, (1H-Benzoimidazol-5-yl)-(cis-2,3,4a,5,6,10b-hexahydro-1H-benzo[f]quinolin-4-yl)-methanone], the “Stability in human liver microsomes, t1/2” value is more than 1.5 h.
The same measure, in the same setting: then `O=C(c1ccc2[nH]cnc2c1)N1CCC[C@@H]2c3ccccc3CC[C@@H]21` [Example 2, (1H-Benzoimidazol-5-yl)-[(4a-S,10b-R)-2,3,4a,5,6,10b-hexahydro-1H-benzo[l]quinolin-4-yl]-methanone], with 0.483 h.

Staying with this series, now noted: human, pooled liver microsomes, pH 7.6, human liver microsomes, 37° C., test compound 1 μM, microsomal protein 0.5 mg/mL, NADPH 1 mM; read-out: Stability in human liver microsomes, t1/2.
With `C[C@]12CCCN(C(=O)c3ccc4[nH]cnc4c3)[C@H]1CCc1ccccc12` (relative stereo) [Example 10, (1H-Benzoimidazol-5-yl)-(cis-10b-methyl-2,3,4a,5,6,10b-hexahydro-1H-benzo[f]quinolin-4-yl)-methanone], the half-life at 1 μM is more than 0.75 h.
Consider `C[C@]12CCCN(C(=O)c3ccc4[nH]cnc4c3)[C@@H]1CCc1ccccc12` (relative stereo) [Example 11, (1H-Benzoimidazol-5-yl)-(trans-10b-methyl-2,3,4a,5,6,10b-hexahydro-1H-benzo[t]quinolin-4-yl)-methanone], for which the half-life at 1 μM was determined as 0.633 h.
Same read-out and setting: with `O=C(c1ccc2[nH]cnc2c1)N1CCC[C@@H]2c3cc(F)cc(F)c3CC[C@@H]21` (relative stereo) [Example 20, (1H-Benzoimidazol-5-yl)-(cis-7,9-difluoro-2,3,4a,5,6,10b-hexahydro-1H-benzo[f]quinolin-4-yl)-methanone] the figure was more than 1.5 h; with `NC(=O)c1ccc2c(c1)CC[C@H]1[C@@H]2CCCN1C(=O)c1ccc2[nH]cnc2c1` (relative stereo) [Example 37, cis-4-(1H-Benzoimidazole-5-carbonyl)-1,2,3,4,4a,5,6,10b-octahydro-benzo[f]quinoline-8-carboxylic acid amide], more than 1.5 h.
Turning to `N#Cc1ccc2c(c1)CC[C@H]1[C@@H]2CCCN1C(=O)c1ccc2[nH]cnc2c1` (relative stereo) [Example 42, cis-4-(1H-Benzoimidazole-5-carbonyl)-1,2,3,4,4a,5,6,10b-octahydro-benzo[f]quinoline-8-carbonitrile], the half-life at 1 μM was more than 1.5 h.
In the case of `N#Cc1ccc2c(c1)[C@H]1CCCN(C(=O)c3ccc4[nH]cnc4c3)[C@H]1CC2` (relative stereo) [Example 91, cis-4-(1H-Benzoimidazole-5-carbonyl)-1,2,3,4,4a,5,6,10b-octahydro-benzo[f]quinoline-9-carbonitrile], the half-life at 1 μM was more than 1.5 h.
As to `O=C(c1ccc2[nH]cnc2c1)N1CCC[C@@H]2c3ccccc3C[C@@H]21` (relative stereo) [Example 93, (1H-Benzoimidazol-5-yl)-(cis-2,3,4,4a,9,9a-hexahydro-indeno[2,1-b]pyridin-1-yl)-methanone], the half-life at 1 μM is more than 1.5 h.
Same read-out and setting: with `CC[C@]12CCCN(C(=O)c3ccc4[nH]cnc4c3)[C@@H]1CCc1ccccc12` (relative stereo) [Example 105, (1H-Benzoimidazol-5-yl)-(trans-10b-ethyl-2,3,4a,5,6,10b-hexahydro-1H-benzo[f]quinolin-4-yl)-methanone] the figure was 0.367 h; with `N#Cc1ccc2c(c1)[C@H]1CCCN(C(=O)c3ccc4[nH]cnc4c3)[C@H]1C2` (relative stereo) [Example 106, cis-1-(1H-Benzoimidazole-5-carbonyl)-2,3,4,4a,9,9a-hexahydro-1H-indeno[2,1-b]pyridine-6-carbonitrile], more than 1.5 h.
Still for that read-out and setting: with `C#Cc1ccc2c(c1)[C@H]1CCCN(C(=O)c3ccc4[nH]cnc4c3)[C@H]1C2` (relative stereo) [Example 155, (1H-Benzoimidazol-5-yl)-(cis-6-ethynyl-2,3,4,4a,9,9a-hexahydro-indeno[2,1-b]pyridin-1-yl)-methanone] the figure was 0.467 h; with `N#Cc1ccc2c(c1)[C@H]1CCCN(C(=O)c3ccc4[nH]cnc4c3)[C@H]1C2` [Example 107, (4a-R,9a-S)-1-(1H-Benzoimidazole-5-carbonyl)-2,3,4,4a,9,9a-hexahydro-1H-indeno[2,1-b]pyridine-6-carbonitrile], more than 1.5 h.
Take `N#Cc1ccc2c(c1)[C@@H]1CCCN(C(=O)c3ccc4[nH]cnc4c3)[C@@H]1C2` [Example 108, (4a-S,9a-R)-1-(1H-Benzoimidazole-5-carbonyl)-2,3,4,4a,9,9a-hexahydro-1H-indeno[2,1-b]pyridine-6-carbonitrile]: the half-life at 1 μM was more than 1.5 h.
On to `C[C@H]1CCN(C(=O)c2ccc3[nH]cnc3c2)[C@H]2Cc3ccccc3[C@@H]12` [Example 146, (1H-Benzoimidazol-5-yl)-(cis-4-methyl-2,3,4,4a,9,9a-hexahydro-indeno[2,1-b]pyridin-1-yl)-methanone], for which the half-life at 1 μM was more than 0.75 h.
Regarding `N#Cc1ccc2c(c1)C[C@H]1[C@@H]2CCCN1C(=O)c1ccc2[nH]cnc2c1` [Example 148, (4a-R,9a-S)-1-(1H-Benzoimidazole-5-carbonyl)-2,3,4,4a,9,9a-hexahydro-1H-indeno[2,1-b]pyridine-7-carbonitrile], the half-life at 1 μM is more than 1.5 h.
Still for that read-out and setting: with `Cc1cc(C(=O)N2CCC[C@@H]3c4cc(C#N)ccc4C[C@@H]32)cc2nc[nH]c12` [Example 152, (4a-R,9a-S)-1-(7-Methyl-1H-benzoimidazole-5-carbonyl)-2,3,4,4a,9,9a-hexahydro-1H-indeno[2,1-b]pyridine-6-carbonitrile] the figure was more than 1.5 h; with `Cc1cc2[nH]cnc2cc1C(=O)N1CCC[C@@H]2c3cc(C#N)ccc3C[C@@H]21` [Example 153, (4a-R,9a-S)-1-(6-Methyl-1H-benzoimidazole-5-carbonyl)-2,3,4,4a,9,9a-hexahydro-1H-indeno[2,1-b]pyridine-6-carbonitrile], more than 1.5 h.

Values taken from US8497281B2, “Aryl- and heteroarylcarbonyl derivatives of hexahydroindenopyridine and octahydrobenzoquinoline” (Vitae Pharmaceuticals, Inc., priority 2009, dated 2013).
